Reference: ChEMBL document CHEMBL4421722, “Inhibitors of protein prenyltransferases” (2013)
Values belong to the compound of their own block, whether it stands above or below them. Activity calls are given as the source filed them. The calls are words filed in the database; no cut-off is given here.

Columns and labels:
[1] = Inhibition of rat recombinant geranylgeranyltransferase type I expressed in Escherichia coli assessed as reduction in geranylgeranylation of K-Ras4B incubated for 30 mins in presence of [3H]GGPP by scintillation counting assay
Rattus norvegicus [2] = species on record: Rattus norvegicus; assay: Inhibition of rat recombinant geranylgeranyltransferase type I expressed in Escherichia coli assessed as residual enzyme activity for geranylgeranylation of RhoA at 50 uM incubated for 30 mins in presence of [3H]GGPP by scintillation counting assay relative to control
[3] = Inhibition of rat recombinant geranylgeranyltransferase type I expressed in Escherichia coli assessed as reduction in geranylgeranylation of RhoA incubated for 30 mins in presence of [3H]GGPP by scintillation counting assay relative to control
Rattus norvegicus [4] = species on record: Rattus norvegicus; assay: Inhibition of rat recombinant geranylgeranyltransferase type I expressed in Escherichia coli assessed as residual enzyme activity for geranylgeranylation of K-Ras4B at 50 uM incubated for 30 mins in presence of [3H]GGPP by scintillation counting assay relative to control
Rattus norvegicus [5] = species on record: Rattus norvegicus; assay: (§1) Competitive inhibition of rat recombinant geranylgeranyltransferase type I expressed in Escherichia coli assessed as reduction in geranylgeranylation of RhoA incubated for 30 mins in presence of fixed level of [3H]GGPP and varying RhoA levels by scintillation counting assay relative to control
HEK293 [6] = assay: Inhibition of geranylgeranyltransferase type I in HEK293 cells expressing Myc-HA-tagged Rheb-CVSL assessed as effect on unprenylated Rap1 accumulation at 12.5 to 50 uM incubated for 48 hrs by SDS-PAGE and immunoblot analysis; assay type: cell-based; conditions: Homo sapiens
[7] = biological target: Protein farnesyltransferase (Rattus norvegicus) (UniProt Q04631+Q02293); assay: Inhibition of rat recombinant FTase alpha/beta expressed in Escherichia coli at 50000 nM using K-Ras4B as a substrate as and [3H]farnesyl pyrophosphate incubated for 30 mins by scintillation counting assay
HEK293 [8] = assay: Inhibition of geranylgeranyltransferase type I in HEK293 cells expressing Myc-HA-tagged Rheb-WT assessed as effect on unprenylated Rap1 accumulation at 3.1 to 25 uM incubated for 48 hrs by SDS-PAGE and immunoblot analysis; assay type: cell-based; conditions: Homo sapiens
Rattus norvegicus [9] = species on record: Rattus norvegicus; assay: Competitive inhibition of rat recombinant geranylgeranyltransferase type I expressed in Escherichia coli assessed as reduction in geranylgeranylation of RhoA incubated for 30 mins in presence of varying level of [3H]GGPP and fixed RhoA levels by scintillation counting assay relative to control
Jurkat [10] = assay: Antiproliferative activity against human Jurkat cells assessed as inhibition of cell proliferation at 12.5 uM incubated for 72 hrs by CCK8 assay; assay type: functional, cell-based
[11] = biological target: Geranylgeranyl transferase type-2 (Homo sapiens) (UniProt P53611+Q92696); assay: Inhibition of RabGGTase (unknown origin) up to 10000 nM using YPTI as substrate protein and [3H]geranylgeranyl pyrophosphate incubated for 20 mins by scintillation counting assay; assay type: protein-complex assay
HEK293 [12] = assay: Inhibition of geranylgeranyltransferase type I in HEK293 cells expressing Myc-HA-tagged Rheb-WT assessed as effect on unprenylated Rap1 accumulation at 2.5 uM incubated for 48 hrs by SDS-PAGE and immunoblot analysis; assay type: cell-based; conditions: Homo sapiens
PANC-1 [13] = assay: Antiproliferative activity against human PANC1 cells assessed as inhibition of cell proliferation at 12.5 uM incubated for 72 hrs by CCK8 assay; assay type: functional, cell-based
Rattus norvegicus [14] = species on record: Rattus norvegicus; assay: as §1, with “Uncompetitive” for “Competitive”, “varying” for “fixed”, “fixed” for “varying”, “by Michaelis-Menten plot analysis” for “relative to control”
[15] = biological target: T1, Geranylgeranyl transferase type-2 (Homo sapiens, UniProt P53611+Q92696); assay: Inhibition of RabGGTase (unknown origin) using YPTI as substrate protein and [3H]geranylgeranyl pyrophosphate incubated for 20 mins by scintillation counting assay; assay type: protein-complex assay
T1 sequence (P53611 whole entry): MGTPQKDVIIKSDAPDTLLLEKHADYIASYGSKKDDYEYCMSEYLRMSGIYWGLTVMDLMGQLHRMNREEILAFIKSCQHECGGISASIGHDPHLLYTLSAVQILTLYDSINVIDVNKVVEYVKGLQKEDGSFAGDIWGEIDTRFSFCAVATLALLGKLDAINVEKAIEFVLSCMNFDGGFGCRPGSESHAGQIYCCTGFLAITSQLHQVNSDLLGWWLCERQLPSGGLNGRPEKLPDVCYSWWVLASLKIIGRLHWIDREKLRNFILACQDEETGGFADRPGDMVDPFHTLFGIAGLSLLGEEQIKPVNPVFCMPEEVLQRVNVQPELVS
T1 sequence (Q92696 whole entry): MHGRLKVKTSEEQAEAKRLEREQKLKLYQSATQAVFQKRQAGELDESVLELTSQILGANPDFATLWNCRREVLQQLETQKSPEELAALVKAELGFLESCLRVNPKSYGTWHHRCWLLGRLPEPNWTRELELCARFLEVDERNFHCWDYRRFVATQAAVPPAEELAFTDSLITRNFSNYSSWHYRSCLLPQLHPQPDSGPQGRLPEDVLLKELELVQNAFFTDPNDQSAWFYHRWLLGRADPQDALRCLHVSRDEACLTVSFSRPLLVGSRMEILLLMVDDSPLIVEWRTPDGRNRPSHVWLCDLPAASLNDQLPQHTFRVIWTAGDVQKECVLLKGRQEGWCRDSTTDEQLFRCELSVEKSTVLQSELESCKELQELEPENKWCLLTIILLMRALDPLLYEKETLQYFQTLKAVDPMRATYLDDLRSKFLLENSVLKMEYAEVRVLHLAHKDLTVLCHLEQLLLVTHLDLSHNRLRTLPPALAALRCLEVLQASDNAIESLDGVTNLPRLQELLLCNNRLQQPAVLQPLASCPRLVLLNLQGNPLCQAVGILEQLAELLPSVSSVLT

[16] = biological target: Protein farnesyltransferase (Rattus norvegicus, UniProt Q02293+Q04631); assay: Inhibition of rat recombinant FTase alpha/beta expressed in Escherichia coli using K-Ras4B as a substrate as and [3H]farnesyl pyrophosphate incubated for 30 mins by scintillation counting assay
[17] = Antiproliferative activity against human MCF10A cells assessed as inhibition of cell proliferation incubated for 72 hrs by CCK8 assay; assay type: cell-based, MCF-10A
MCF7 = assay: Antiproliferative activity against human MCF7 cells assessed as inhibition of cell proliferation incubated for 6 days by CCK8 assay; assay type: functional, cell-based; conditions: MCF7, 144 h
K562 = assay: Antiproliferative activity against human K562 cells assessed as inhibition of cell proliferation incubated for 72 hrs by CCK8 assay; assay type: functional, cell-based; conditions: K562, 72 h
ASPC1 = assay: Antiproliferative activity against human AsPC1 cells assessed as inhibition of cell proliferation incubated for 6 days by CCK8 assay; assay type: functional, cell-based; conditions: ASPC1, 144 h
BT-474 = assay: Antiproliferative activity against human BT474 cells assessed as inhibition of cell proliferation incubated for 72 hrs by CCK8 assay; assay type: functional, cell-based; conditions: BT-474, 72 h
MIA PaCa-2 = assay: Antiproliferative activity against human MIAPaCa2 cells assessed as inhibition of cell proliferation incubated for 72 hrs by CCK8 assay; assay type: functional, cell-based; conditions: MIA PaCa-2, 72 h
MDA-MB-231 = assay: Antiproliferative activity against human MDA-MB-231 cells assessed as inhibition of cell proliferation incubated for 72 hrs by CCK8 assay; assay type: functional; conditions: MDA-MB-231, 72 h
Jurkat [18] = assay: Antiproliferative activity against human Jurkat cells assessed as inhibition of cell proliferation incubated for 72 hrs by CCK8 assay; assay type: functional, cell-based
PANC-1 [19] = assay: Antiproliferative activity against human PANC1 cells assessed as inhibition of cell proliferation incubated for 72 hrs by CCK8 assay; assay type: functional, cell-based; conditions: PANC-1, 72 h
CFPAC-1 = assay: Antiproliferative activity against human CFPAC-1 cells assessed as inhibition of cell proliferation incubated for 72 hrs by CCK8 assay; assay type: functional, cell-based; conditions: CFPAC-1, 72 h
Capan-2 = assay: Antiproliferative activity against human Capan2 cells assessed as inhibition of cell proliferation incubated for 72 hrs by CCK8 assay; assay type: functional, cell-based; conditions: Capan-2, 72 h
HEK293 [20] = assay: Inhibition of geranylgeranyltransferase type I in HEK293 cells expressing Myc-HA-tagged Rheb-WT assessed as effect on unprenylated Rap1 accumulation at 1.25 to 10 uM incubated for 48 hrs by SDS-PAGE and immunoblot analysis; assay type: cell-based; conditions: Homo sapiens
HEK293 [21] = assay: Inhibition of geranylgeranyltransferase type I in HEK293 cells expressing Myc-HA-tagged Rheb-CVSL assessed as effect on unprenylated Rap1 accumulation at 5 to 10 uM incubated for 48 hrs by SDS-PAGE and immunoblot analysis; assay type: cell-based; conditions: Homo sapiens

Compound: CC(C)C[C@H](NC(=O)C1=CC[C@@H](c2cccc(Br)c2)N(S(=O)(=O)c2ccc(Cl)cc2)[C@H]1c1cccc(Cl)c1)C(N)=O
GI50 at 72 h [17]: 14.2 µM | GI50 (MCF7): 3.43 µM | GI50 (K562): 7.06 µM

Compound: CCC[C@@H]1[C@@H](Sc2ccc(OC)cc2)[C@@H](C(=O)O)[C@H](c2ccc(Br)cc2)N1S(=O)(=O)c1ccc(C)cc1
IC50 [3]: > 50 µM | IC50 [15]: 4.5 µM | IC50 [16]: > 100 µM

Compound: CC(C)(C)OC(=O)CCS[C@H]1[C@@H](C(=O)O)[C@H](c2ccc(Cl)cc2)N(S(=O)(=O)c2ccc(Cl)cc2)[C@@H]1CC1CCCC1
Activity (Rattus norvegicus [2]): 9.8% | IC50 [3]: 8.9 µM | Activity (Rattus norvegicus [4]): 22.5% | IC50 [15]: 3.1 µM | IC50 [16]: > 100 µM

Compound: COC(=O)[C@H](Cc1ccccc1)NCC(=O)OCC1=C[C@@H](C(C)(C)C)N(S(=O)(=O)c2ccccc2C)[C@H]1c1ccc(Cl)cc1
inhibition (HEK293 [20]): Active | inhibition (HEK293 [21]): Active

Now from value to compound, other results behind:

IC50 [1]: 2000 nM | Activity (Rattus norvegicus [2]): 5.3% | IC50 [3]: 0.5 to 2.5 µM | Activity (Rattus norvegicus [4]): 13.3% | inhibition (Rattus norvegicus [5]): Active | inhibition [7]: inactive | inhibition (Rattus norvegicus [9]): inactive | inhibition [11]: Active | inhibition (Rattus norvegicus [14]): Active
Compound: Cc1ccccc1S(=O)(=O)N1[C@@H](c2ccc(Cl)cc2)C(C(=O)O)=C[C@H]1C(C)(C)C (relative stereo)
inhibition (HEK293 [6]): Active | inhibition (HEK293 [8]): Active | growth inhibition (GI) (Jurkat [10]): Active | inhibition (HEK293 [12]): inactive | growth inhibition (GI) (PANC-1 [13]): Active

Activity (Rattus norvegicus [2]): 9.7% | IC50 [3]: 2.4 µM | Activity (Rattus norvegicus [4]): 30.4% | IC50 [15]: 7 µM | IC50 [16]: > 100 µM
Compound: CC(C)(C)OC(=O)CCS[C@H]1[C@@H](C(=O)O)[C@H](c2ccc(Cl)cc2)N(S(=O)(=O)c2ccccc2)[C@@H]1CC1CCCC1

GI50 (ASPC1): 11.5 to 12.9 µM | IC50 [3]: 5.4 to 7.6 µM | GI50 (BT-474): 10.6 to 10.8 µM | GI50 (MIA PaCa-2): 7.49 to 8.06 µM | GI50 (MDA-MB-231): 5.54 to 12.6 µM | GI50 (Jurkat [18]): 5.62 to 6.9 µM | GI50 (PANC-1 [19]): 7.52 to 11.7 µM | GI50 (K562): 6.74 to 6.9 µM
Compound: Cc1ccccc1S(=O)(=O)N1[C@@H](c2ccc(Cl)c(Cl)c2)C(C(=O)N[C@@H](Cc2ccccc2)C(N)=O)=C[C@H]1C(C)(C)C
GI50 (CFPAC-1): 2.03 to 6.09 µM | GI50 (Capan-2): 8.45 to 11.3 µM
